# Source: paper PMC13534584, “ATP13A4 gates extracellular polyamine levels to control excitatory synaptogenesis” (Nature Communications, 2026)
# Residue numbers refer to the chain shown, from its start.
# Legend:
# Experiment in all cases: ADP-Glo Max ATPase assay, dose-response
# Format in all cases: biochemical
# Conditions in all cases: 5 mM ATP, 11 mM MgCl2, 100 mM KCl, MOPS-KOH pH 7, 37 °C, 0.001% DDM
# [1] = biological target: T1, hATP13A4 (Homo sapiens, UniProt Q4VNC1, E276K)
# T1 construct: gene ATP13A4; solubilised in DDM
# T1 sequence (Q4VNC1 1-1196 E276K): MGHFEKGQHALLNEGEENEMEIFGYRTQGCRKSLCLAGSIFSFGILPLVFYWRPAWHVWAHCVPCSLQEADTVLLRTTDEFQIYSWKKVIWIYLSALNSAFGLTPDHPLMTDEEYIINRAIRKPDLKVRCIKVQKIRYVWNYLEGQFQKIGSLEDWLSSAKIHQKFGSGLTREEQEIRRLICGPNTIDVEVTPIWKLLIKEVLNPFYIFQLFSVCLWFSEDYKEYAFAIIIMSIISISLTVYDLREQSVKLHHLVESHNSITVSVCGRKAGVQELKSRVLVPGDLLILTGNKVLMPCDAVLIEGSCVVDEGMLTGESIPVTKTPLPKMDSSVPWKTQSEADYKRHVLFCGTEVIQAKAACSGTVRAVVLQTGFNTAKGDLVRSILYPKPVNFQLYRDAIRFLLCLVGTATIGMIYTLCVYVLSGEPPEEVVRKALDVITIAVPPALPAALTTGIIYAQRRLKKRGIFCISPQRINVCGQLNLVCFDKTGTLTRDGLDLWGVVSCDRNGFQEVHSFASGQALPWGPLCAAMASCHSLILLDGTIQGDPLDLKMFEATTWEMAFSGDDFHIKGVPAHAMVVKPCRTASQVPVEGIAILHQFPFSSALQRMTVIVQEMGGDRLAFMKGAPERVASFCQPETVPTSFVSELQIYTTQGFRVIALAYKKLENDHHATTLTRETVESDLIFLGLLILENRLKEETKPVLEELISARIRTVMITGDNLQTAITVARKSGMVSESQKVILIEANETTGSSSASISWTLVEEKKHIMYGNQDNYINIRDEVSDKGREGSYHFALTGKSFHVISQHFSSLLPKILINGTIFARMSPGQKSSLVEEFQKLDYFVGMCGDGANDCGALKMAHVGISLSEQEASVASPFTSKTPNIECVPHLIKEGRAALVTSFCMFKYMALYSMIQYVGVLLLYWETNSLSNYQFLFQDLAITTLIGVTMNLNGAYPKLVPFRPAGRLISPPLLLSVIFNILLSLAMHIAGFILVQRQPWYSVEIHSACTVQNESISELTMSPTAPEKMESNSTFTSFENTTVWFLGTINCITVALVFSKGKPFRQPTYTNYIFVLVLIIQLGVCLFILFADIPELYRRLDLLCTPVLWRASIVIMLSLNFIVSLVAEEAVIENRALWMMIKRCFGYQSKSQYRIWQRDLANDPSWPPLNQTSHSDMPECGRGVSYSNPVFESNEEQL
# [2] = biological target: T2, hATP13A4 (Homo sapiens, UniProt Q4VNC1, A356V)
# T2 construct: gene ATP13A4; solubilised in DDM
# T2 sequence (Q4VNC1 1-1196 A356V): T1 sequence (Q4VNC1 1-1196 E276K) with K276E, A356V
# [3] = biological target: T3, hATP13A4 (Homo sapiens, UniProt Q4VNC1)
# T3 construct: gene ATP13A4; solubilised in DDM
# T3 sequence (Q4VNC1 1-1196): T1 sequence (Q4VNC1 1-1196 E276K) with K276E
Structure (SMILES),spermidine-dependent ATPase activity [1],spermidine-dependent ATPase activity [2],ATPase stimulation [3]
"NCCCCNCCCN [SPD, spermidine]",p.E276K reduces spermidine-stimulated ATPase activity to a similar extent as p.A356V and p.E646D,"spermidine-dependent ATPase activity of purified, solubilized ATP13A4 (WT and disease-associated variants p.E276K, p.A356V",each stimulated ATPase activity of purified wild-type (WT) hATP13A4 in a concentration-dependent manner
"NCCCNCCCCNCCCN [SPM, spermine]",,,ATP13A4 exhibits the highest apparent affinity for spermine and spermidine
NCCCCCN [cadaverine],,,"Putrescine, spermidine, spermine, cadaverine, and acetylated polyamine derivatives each stimulated ATPase activity"
